Test system: PANC-1 (human pancreatic cancer-derived cell line)
Assay: MTS assay on Panc-1 (human pancreas carcinoma cell line)
Format: cell-based
Settings: 144 h; for IC50: PANC-1, MTS method, cell survival 6 days after exposure, 4-parameter logistic fit; for inhibition at 30 µM: read-out: Growth inhibition (%) 30 μM; for inhibition at 10 µM: read-out: Growth inhibition (%) 10 μM; for inhibition at 0.3125 µM: read-out: Growth inhibition (%) 0.3125 μM; for inhibition at 1 µM: read-out: Growth inhibition (%) 1 μM; for inhibition at 0.625 µM: read-out: Growth inhibition (%) 0.625 μM
Procedure: Experimental Example: MTS Assay on Panc-1 (Human Pancreas Carcinoma Cell Line) cell line name: PANC-1 derived from: human pancreas glandular cancer purchased from: ATCC product code: CRL-1469 proliferation medium: D-MEM+10% FBS culture environment: 37° C., 5% CO2 seeding density: 5.0×10^5 cells/25 cm^2 solvent control substance: DMSO (HYBRI-MAX®, Sigma-Aldrich Corp.) test substance: Example compound (ID-1-ID-13) A DMSO solution of the test substance was prepared by serially diluting (common ratio 2) each test substance with DMSO.
A solvent control substance sample and a test substance sample were exposed to a human pancreatic cancer-derived cell line (PANC-1), and the survival rate of the cell 6 days later was measured by the MTS method. The measurement was performed 3 times and the average thereof was adopted. The survival rate of the cell in each test substance sample was calculated by the following formula 1 with the value at exposure of the solvent control substance sample as 100% survival rate. […]
survival rate (%)=100×absorbance of each test substance sample/absorbance of solvent control substance sample formula 1 Normalized values calculated by the following formula 2 from the absorbances of each sample at 492 nm and 630 nm and the absorbances of the blank were used as the absorbances in the above-mentioned formula 1. […]
normalized value (ABS492 nm-630 nm)=(ABSsa 492 nm-ABSsa 630 nm)−(ABSbl 492 nm-ABSbl 630 nm) ABSsa 492: absorbance of each sample at wavelength 492 nm ABSsa 630: absorbance of each sample at wavelength 630 nm ABSbl 492: absorbance of blank corresponding to each sample at wavelength 492 nm ABSbl 630: absorbance of blank corresponding to each sample at wavelength 630 nm formula 2 […]
The analysis was performed by using nplr package on R (The R Foundation for Statistical Computing) and estimating the logistic regression curve (4-parameter).

Q: With `CC(C)C[C@H]1ON(C(=O)/C=C/c2ccc3ccccc3n2)[C@H]2CN(CCC(N)=O)C(=O)[C@H](CC(C)C)N2C1=O` [ID-20, 3-((3R,6S,9aS)-3,6-diisobutyl-4,7-dioxo-1-((E)-3-(quinolin-2-yl)acryloyl)hexahydropyrazino[2,1-c][1,2,4]oxadiazin-8 (1H)-yl)propanamide] as the molecule, how does the IC50 read?
A: 2400 nM

Q: What about the inhibition at 30 µM (PANC-1, MTS, 6 days) of the same molecule?
A: 100%

Q: Which results are given for `CC(C)C[C@H]1ON(C(=O)/C=C/c2cc(C#N)ccn2)[C@H]2CN(C3CCN(C)CC3)C(=O)[C@H](CC(C)C)N2C1=O` [ID-48, 2-((E)-3-((3R,6S,9aS)-3,6-diisobutyl-8-(1-methylpiperidin-4-yl)-4,7-dioxohexahydropyrazino[2,1-c][1,2,4]oxadiazin-1(6H)-yl)-3-oxoprop-1-en-1-yl)isonicotinonitrile]?
A: IC50: 580 nM; inhibition at 10 µM (PANC-1, MTS, 6 days): 100%

Q: Which IC50 does the source give for `CC(C)C[C@H]1ON(C(=O)/C=C/c2nc(C#CCCCO)cs2)[C@H]2CN(C3CCN(C(C)C)CC3)C(=O)[C@H](CC(C)(C)C)N2C1=O` [ID-10, (3R,6S,9aS)-1-((E)-3-(4-(5-hydroxypent-1-yn-1-yl)thiazol-2-yl)acryloyl)-3-isobutyl-8-(1-isopropylpiperidin-4-yl)-6-neopentyltetrahydropyrazino[2,1-c][1,2,4]oxadiazine-4,7(3H,6H)-dione] here?
A: 48 nM

Q: How did the inhibition at 0.15625 µM (PANC-1, MTS, 6 days, 0.15625 μM, read-out: Growth inhibition (%) 0.15625 μM) turn out when `CC(C)N1CCC(N2C[C@@H]3N(C(=O)/C=C/c4nc(C#CCCCCO)cs4)O[C@H](CC4CC4)C(=O)N3[C@@H](CC(C)(C)C)C2=O)CC1` [ID-99, (3R,6S,9aS)-3-(cyclopropylmethyl)-1-((E)-3-(4-(6-hydroxyhex-1-yn-1-yl)thiazol-2-yl)acryloyl)-8-(1-isopropylpiperidin-4-yl)-6-neopentyltetrahydropyrazino[2,1-c] [1,2,4]oxadiazine-4,7(3H,6H)-dione] was run?
A: 61.1%

Q: For `CC(C)N1CCC(N2C[C@@H]3N(C(=O)/C=C/c4cnc5ccccc5n4)O[C@H](CC4CCCCC4)C(=O)N3[C@@H](CC(C)(C)C)C2=O)CC1` [ID-106, (3R,6S,9aS)-3-(cyclohexylmethyl)-8-(1-isopropylpiperidin-4-yl)-6-neopentyl-1-((E)-3-(quinoxalin-2-yl)acryloyl)tetrahydropyrazino[2,1-c][1,2,4]oxadiazine-4,7(3H,6H)-dione], which inhibition at 0.3125 µM (PANC-1, MTS, 6 days) is on record?
A: 29.8%

Q: And the inhibition at 1 µM (PANC-1, MTS, 6 days)?
A: 101%

Q: `CC(C)C[C@H]1ON(C(=O)/C=C/c2cccc3nccnc23)[C@H]2CN(CCC(N)=O)C(=O)[C@H](CC(C)C)N2C1=O` [ID-30, 3-((3R,6S,9aS)-3,6-diisobutyl-4,7-dioxo-1-((E)-3-(quinoxalin-5-yl)acryloyl)hexahydropyrazino[2,1-c][1,2,4]oxadiazin-8 (1H)-yl)propanamide] was tested. Which inhibition at 10 µM (PANC-1, MTS, 6 days) did it give?
A: 58.4%

Q: Which inhibition at 0.625 µM (PANC-1, MTS, 6 days) does the source give for `CC(C)C[C@H]1ON(C(=O)/C=C/c2ccc(-c3cccc(O)c3)cn2)[C@H]2CN(C3CCN(CCCCO)CC3)C(=O)[C@H](CC(C)(C)C)N2C1=O` [ID-80, (3R,6S,9aS)-8-(1-(4-hydroxybutyl)piperidin-4-yl)-1-((E)-3-(5-(3-hydroxyphenyl)pyridin-2-yl)acryloyl)-3-isobutyl-6-neopentyltetrahydropyrazino[2,1-c][1,2,4]oxadiazine-4,7(3H,6H)-dione] here?
A: 63.2%

Q: Which IC50 does the source give for `CC(C)C[C@H]1ON(C(=O)/C=C/c2nc3cc(O)ccc3s2)[C@H]2CN([C@@H]3CCN(CCCCO)C3)C(=O)[C@H](CC(C)(C)C)N2C1=O` [ID-12, (3R,6S,9aS)-1-((E)-3-(5-hydroxybenzo[d]thiazol-2-yl)acryloyl)-8-((R)-1-(4-hydroxybutyl)pyrrolidin-3-yl)-3-isobutyl-6-neopentyltetrahydropyrazino[2,1-c][1,2,4]oxadiazine-4,7(3H,6H)-dione] here?
A: 60 nM

Q: For `CC(C)C[C@H]1C(=O)N(C2CCN(C)CC2)C[C@@H]2N(C(=O)/C=C/c3nc4ccccc4s3)c3ccccc3C(=O)N21` [ID-58, (4S,11aS)-11-((E)-3-(benzo[d]thiazol-2-yl)acryloyl)-4-isobutyl-2-(1-methylpiperidin-4-yl)-1,2,11,11a-tetrahydro-6H-pyrazino[2,1-b]quinazoline-3,6(4H)-dione], which IC50 is on record?
A: 560 nM

Q: What about the inhibition at 1 µM (PANC-1, MTS, 6 days) of the same molecule?
A: 78.4%

Q: For `CC(C)C[C@H]1ON(C(=O)/C=C/c2nc3ccccc3s2)[C@H]2CN(C3CCN(C)CC3)C(=O)[C@H](CCS(C)(=O)=O)N2C1=O` [ID-74, (3R,6S,9aS)-1-((E)-3-(benzo[d]thiazol-2-yl)acryloyl)-3-isobutyl-8-(1-methylpiperidin-4-yl)-6-(2-(methylsulfonyl)ethyl)tetrahydropyrazino[2,1-c][1,2,4]oxadiazine-4,7(3H,6H)-dione], which inhibition at 0.3125 µM (PANC-1, MTS, 6 days) is on record?
A: 38.7%

Q: How did the IC50 turn out when `CC(C)C[C@H]1ON(C(=O)/C=C/c2ccccn2)[C@H]2CN(C3CCN(C)CC3)C(=O)[C@H](CC(C)C)N2C1=O` [ID-1, (3R, 6S, 9aS)-3,6-diisobutyl-8-(1-methylpiperidin-4-yl)-1-((E)-3-(pyridin-2-yl)acryloyl) tetrahydropyrazino[2,1-c] [1,2,4]oxadiazine-4,7(3H,6H)-dione] was run?
A: 4100 nM

Q: With `CC(C)C[C@H]1ON(C(=O)/C=C/[C@@H]2CCCN2C)[C@H]2CN(CCC(N)=O)C(=O)[C@H](CC(C)C)N2C1=O` [ID-42, 3-((3R,6S,9aS)-3,6-diisobutyl-1-((E)-3-((S)-1-methylpyrrolidin-2-yl)acryloyl)-4,7-dioxohexahydropyrazino[2,1-c][1,2,4]oxadiazin-8(1H)-yl)propanamide] as the molecule, how does the inhibition at 10 µM (PANC-1, MTS, 6 days) read?
A: 65.3%

Q: `CC(C)C[C@H]1ON(C(=O)/C=C/c2ccccn2)[C@H]2CN(C3CCN(C4CCCCC4)CC3)C(=O)[C@H](CC(C)C)N2C1=O` [ID-63, (3R,6S,9aS)-8-(1-cyclohexylpiperidin-4-yl)-3,6-diisobutyl-1-((E)-3-(pyridin-2-yl)acryloyl)tetrahydropyrazino[2,1-c][1,2,4]oxadiazine-4,7(3H,6H)-dione] was tested. Which IC50 did it give?
A: 1400 nM

Q: How did the inhibition at 0.625 µM (PANC-1, MTS, 6 days) turn out when `CC(C)(C)C[C@H]1C(=O)N(CC2CCCCC2)C[C@@H]2N(C(=O)/C=C/c3cnc4ccccc4n3)O[C@H](CC3CCCCC3)C(=O)N21` [ID-25, (3R,6S,9aS)-3,8-bis(cyclohexylmethyl)-6-neopentyl-1-((E)-3-(quinoxalin-2-yl)acryloyl)tetrahydropyrazino[2,1-c] [1,2,4]oxadiazine-4,7(3H,6H)-dione] was run?
A: 4.7%

Q: And the inhibition at 1 µM (PANC-1, MTS, 6 days)?
A: 6%

Q: And the inhibition at 30 µM (PANC-1, MTS, 6 days)?
A: 98.5%

Q: With `CC(C)C[C@H]1ON(C(=O)/C=C/c2nc(C#CCCCCO)cs2)[C@H]2CN(C3CN(CCCCO)C3)C(=O)[C@H](CC(C)(C)C)N2C1=O` [ID-92, (3R,6S,9aS)-8-(1-(4-hydroxybutyl)azetidin-3-yl)-1-((E)-3-(4-(6-hydroxyhex-1-yn-1-yl)thiazol-2-yl)acryloyl)-3-isobutyl-6-neopentyltetrahydropyrazino[2,1-c][1,2,4]oxadiazine-4,7(3H,6H)-dione] as the molecule, how does the IC50 read?
A: 120 nM

Q: `CC(C)C[C@H]1ON(C(=O)/C=C/c2ccccn2)[C@H]2CN(C3CCNCC3)C(=O)[C@H](CC(C)C)N2C1=O` [ID-16, (3R,6S,9aS)-3,6-diisobutyl-8-(piperidin-4-yl)-1-((E)-3-(pyridin-2-yl)acryloyl)tetrahydropyrazino[2,1-c][1,2,4]oxadiazine-4,7(3H,6H)-dione] was tested. Which IC50 did it give?
A: 4700 nM

Q: And the inhibition at 30 µM (PANC-1, MTS, 6 days)?
A: 100%

Q: With `CC(C)C[C@H]1ON(C(=O)/C=C/c2nc3cc(F)ccc3s2)[C@H]2CN(C3CCN(C)CC3)C(=O)[C@H](CC(C)C)N2C1=O` [ID-52, (3R,6S,9aS)-1-((E)-3-(5-fluorobenzo[d]thiazol-2-yl)acryloyl)-3,6-diisobutyl-8-(1-methylpiperidin-4-yl)tetrahydropyrazino[2,1-c][1,2,4.]oxadiazine-4,7(3H,6H)-dione] as the molecule, how does the IC50 read?
A: 480 nM

Q: What about the inhibition at 10 µM (PANC-1, MTS, 6 days) of the same molecule?
A: 101%

Q: For `CC(C)C[C@H]1ON(C(=O)/C=C/c2cccc(=O)[nH]2)[C@H]2CN(C3CCN(C)CC3)C(=O)[C@H](CC(C)C)N2C1=O` [ID-51, (3R,6S,9aS)-3,6-diisobutyl-8-(1-methylpiperidin-4-yl)-1-((E)-3-(6-oxo-1,6-dihydropyridin-2-yl)acryloyl)tetrahydropyrazino[2,1-c][1,2,4]oxadiazine-4,7(3H,6H)-dione], which inhibition at 10 µM (PANC-1, MTS, 6 days) is on record?
A: 47.5%

Q: With `CC(C)C[C@H]1ON(C(=O)/C=C/c2nc3ccccc3s2)[C@H]2CN(CCC(N)=O)C(=O)[C@H](CC(C)C)N2C1=O` [ID-23, 3-((3R,6S,9aS)-1-((E)-3-(benzo[d]thiazol-2-yl)acryloyl)-3,6-diisobutyl-4,7-dioxohexahydropyrazino[2,1-c][1,2,4]oxadiazin-8(1H)-yl)propanamide] as the molecule, how does the IC50 read?
A: 770 nM

Q: What about the inhibition at 30 µM (PANC-1, MTS, 6 days) of the same molecule?
A: 102%
